Measured values: patent publication US20070254288A1, “Diagnostic methods for pain sensitivity and chronicity and for tetrahydrobiopterin-related disorders” (The General Hospital Corporation, priority 2005, published 2007)
“Also recorded” adds a separate entry of the source. Where a name gives a salt, the structure may show the parent alone.

Key:
[1] = test system: Sprague Dawley rats; test: Nociceptive thresholds in naïve animals (von Frey, radiant heat); format: in vivo, rat
Method: (§1) Animals were fully habituated and experiments performed blinded. Threshold for eliciting a withdrawal reflex to graded strength monofilament von Frey hairs (0.0174-20.9 g) was measured to assess mechanical allodynia. To measure cold allodynia, a drop of acetone was applied to the plantar hindpaw, and the time the animal spent licking, shaking or lifting the paw was measured (Tegeder et al., J Neurosci 24:1637-1645 (2004)). Paw withdrawal latency to radiant heat (lamp with 8 V, 50 W) assessed heat evoked pain (Ugo Basile).
(§2) DAHP was dissolved in 1:1 polyethylene glycol (PEG400) and 1×PBS, pH 7.4 (15 mg/ml) and administered i.p. or intrathecally (250 μg/kg/h; 5 μl/h). For all i.t. injections/infusions a spinal catheter (Recathco) was used and implanted as described (Kunz et al., Pain 110:409-418 (2004)). Infusions with an osmotic pump (Alzet). 6R-BH4 in ACSF was injected i.t. (10 μg, single 10 μl injection). N-acetyl-serotonin in 1×PBS pH 7.4 containing 3% ethanol was delivered by i.t. infusion (100 μg/kg/h; 5 μl/h). Control animals received the appropriate vehicle. All drugs from Sigma-Aldrich.

[2] = test system: cultured adult rat DRG neurons; test: Calcium imaging (fura-2) in cultured adult rat DRG neurons; format: cell-based
Method: Miniature EPSCs were recorded at −70 mV by whole cell patch clamp in adult rat transverse spinal cord slices (Baba et al., Mol Cell Neurosci 24:818-830 (2003)). Intracellular [Ca]I was measured fluorometrically (ΔF 340/380) in cultured adult DRG neurons loaded with fura-2. 6R-BH4 (0.3-10 μM), DEA-NONOate (50 μM), and L-NAME (10-100 μM) were applied using a multibarrel fast drug delivery system.

[3] = test system: Sprague Dawley rats; test: Spared nerve injury (SNI) model: mechanical (von Frey) and cold (acetone) allodynia; format: in vivo, rat; details: SNI
Method: (§3) Adult male Sprague Dawley rats (150-200 g, Charles River Laboratories) were used. For the SNI model two branches of the sciatic nerve, the common peroneal and the tibial nerve, were ligated and sectioned distally. For the CCI model the sciatic nerve was constricted with three Dexon 4/0 ligatures. For the SNL model, the L5 spinal nerve was tightly ligated. All surgical procedures were under isoflurane anesthesia. For the Formalin test 50 μl of 5% formaldehyde solution were injected into a hindpaw and flinches were counted per minute up to 60 min. Paw inflammation was induced with 50 μl complete Freund's adjuvant (CFA) injected into a hindpaw. Nociceptive analysis was done blinded, and animals were fully habituated to the room and test cages. Mechanical allodynia was assessed with graded strength monofilament von Frey hairs (0.0174-20.9 gram, log scaled), cold allodynia with the acetone test and heat hyperalgesia with the Hargreaves test. Drugs (Sigma) were injected intraperitoneally or intrathecally through a spinal catheter, osmotic pumps were used for infusion. Control animals received vehicle. L4/5 DRG and spinal cord tissue was processed for QRT-PCR, Western blotting, in situ hybridization and immunofluorescence studies.
as §1, §2
Data are means ±SEM. The number of animals per group was 9-12. Areas under the “effect versus time” curves (AUC) were calculated using the linear trapezoidal rule and compared with Student's t-test or univariate analysis of variance (ANOVA) with subsequent t-tests employing a Bonferroni alpha-correction for multiple comparisons. All other data were analyzed with univariate ANOVA or ANOVA for repeated measurements. P at 0.05 for all tests.

[4] = test system: BH4 synthesis (GTP cyclohydrolase activity); test: Tissue concentrations of neopterin and biopterin in L4/5 DRGs (LC/MS-MS); format: in vivo, rat; details: seven days after SNI
Method: Homogenized tissue was oxidized with iodine, and pteridines were extracted on Oasis MCX cartridges. Concentrations of total biopterin, neopterin, and the internal standard rhamnopterin were determined by LC/MS-MS. LC analysis under gradient conditions on a Nucleosil C8 column; MS-MS analyses on an API 4000 Q TRAP triple quadrupole mass spectrometer. Precursor-to-product ion transitions of m/z 236→192 for biopterin, m/z 252→192 for neopterin, m/z 265→192 for rhamnopterin were used for the MRM. Linearity from 0.1-50 ng/ml. The coefficient of correlation for all measured sequences was at least 0.99. The intra-day and inter-day variability was <10%.

[5] = test system: Sprague Dawley rats; test: CFA-induced paw inflammation: thermal hyperalgesia (Hargreaves); format: in vivo, rat; details: single dose 50 mg/kg i.p.; 50 mg/kg
Method: as §3, with “Drugs (Sigma) were injected intraperitoneally or intrathecally through a spinal catheter, osmotic pumps were used for infusion. Control animals received vehicle. L4/5 DRG and spinal cord tissue was processed for QRT-PCR, Western blotting, in situ hybridization and immunofluorescence studies.” left out
For the Formalin test 50 μl of 5% formaldehyde solution were injected into one hindpaw and flinches were counted per minute up to 60 min. […]
as §1
Data are means ±SEM. […] Areas under the “effect versus time” curves (AUC) were calculated using the linear trapezoidal rule and compared with Student's t-test or univariate analysis of variance (ANOVA) with subsequent t-tests employing a Bonferroni alpha-correction for multiple comparisons. All other data were analyzed with univariate ANOVA or ANOVA for repeated measurements. […]

[6] = Observation of general well-being, body weight, gait, activity; format: in vivo, rat; details: 100 μg/kg/hr i.t. after SNI
[7] = test system: biopterin; test: Forskolin stimulation of whole blood from healthy volunteers: biopterin; format: cell-based, human; details: 10 μM, 24 h
Description: FIGS. 14C-14F show the effect of forskolin on patient white blood cells. […] White bars unstimulated; grey after stimulation. […] Results represent means with SEM.

SMILES: C[C@H](O)[C@H](O)[C@H]1CNc2nc(N)[nH]c(=O)c2N1 [6R-BH4, (6R)-5,6,7,8-tetrahydrobiopterin dihydrochloride]
- latency of pain production ([1]; rat, in vivo): < 30 min
- recorded cells with increased intracellular calcium ([2]; 0.3-10 μM, n=95): 67%

SMILES: CCN(CC)/[N+]([O-])=N/O.CCNCC [DEA-NONOate]
- intracellular calcium increase ([2]; 50 μM, n=32, compared with BH4): produced similar increases

SMILES: COC(=O)[C@@H](N)CCCNC(=N)N[N+](=O)[O-] [L-NAME]
- mechanical and cold allodynia ([3]; 25 mg/kg i.p., 25 mg/kg): significant effects for von Frey and acetone responses; also recorded: reduced SNI-evoked mechanical and cold allodynia
- BH4 mediated increase in [Ca2+]I ([2]; 50 μM): significantly reduced the BH4 mediated increase
- DEA-NONOate induced increase of [Ca2+]I ([2]; L-NAME 50 μM, DEA-NONOate 50 μM): has no effect
- reduction of the BH4 effect on intracellular calcium ([2]; n=29, p<0.01): 47±4%

SMILES: CC(=O)NCCc1c[nH]c2ccc(O)cc12 [NAS, N-acetyl-serotonin]
- total biopterin levels in L4/5 DRGs [4]: reduced biopterin levels; also recorded: significantly reduces total biopterin levels
- mechanical and cold allodynia ([3]; 100 μg/kg/h i.t. infusion 14 days): significantly reduced mechanical and cold allodynia; also recorded: significantly reduces nerve-injury evoked mechanical and cold allodynia
- thermal hyperalgesia [5]: significantly reduces thermal hyperalgesia
- overt adverse effects [6]: without overt adverse effects

SMILES: C=C[C@@]1(C)CC(=O)[C@]2(O)[C@@]3(C)[C@@H](O)CCC(C)(C)[C@@H]3[C@H](O)[C@H](OC(C)=O)[C@@]2(C)O1 [forskolin]
- biopterin increase in whole blood ([7]; homozygous carriers of the haplotype): 20%
- biopterin increase in whole blood ([7]; non-carriers): about 60%

SMILES: Nc1nc2ncc([C@H](O)[C@H](O)CO)nc2c(=O)[nH]1 [neopterin]
- mechanical and thermal pain sensitivity ([1]; naïve rats, i.t. 10 μg, 10 μl): had no effect on mechanical and thermal pain sensitivity; also recorded: had no significant effect
